Molecular target: T1, chimeric human H3 receptor (Homo sapiens, UniProt Q9Y5N1)
T1 construct: rat Galpha-i2 (Gnai2, rat); made in house; host or cells: Sf9 insect cells (baculovirus); P2 membranes
Assay: Chimeric human H3 receptor screening GTP binding assay (inhibition of histamine-stimulated GTP-gamma35S binding, Example 8)
Assay type: biochemical
Settings: 1 h; assay described in Example 8; symbol "!" in column headed Ki; read-out: Ki ("!": percent inhibition of agonist-induced GTP-gammaS binding to H3)
Outline: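 Compound tested at 4 μM against 1 μM histamine stimulation; 125 pM GTP-gamma35S binding measured by filtration and scintillation after 60 min at room temperature. Membranes from Sf9 cells expressing chimeric human H3 plus G-protein subunits, in Tris pH 7.4/NaCl/MgCl2/GDP buffer; values are % inhibition after nonspecific subtraction.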

T1 sequence (Q9Y5N1 with tags, fused parts or gaps): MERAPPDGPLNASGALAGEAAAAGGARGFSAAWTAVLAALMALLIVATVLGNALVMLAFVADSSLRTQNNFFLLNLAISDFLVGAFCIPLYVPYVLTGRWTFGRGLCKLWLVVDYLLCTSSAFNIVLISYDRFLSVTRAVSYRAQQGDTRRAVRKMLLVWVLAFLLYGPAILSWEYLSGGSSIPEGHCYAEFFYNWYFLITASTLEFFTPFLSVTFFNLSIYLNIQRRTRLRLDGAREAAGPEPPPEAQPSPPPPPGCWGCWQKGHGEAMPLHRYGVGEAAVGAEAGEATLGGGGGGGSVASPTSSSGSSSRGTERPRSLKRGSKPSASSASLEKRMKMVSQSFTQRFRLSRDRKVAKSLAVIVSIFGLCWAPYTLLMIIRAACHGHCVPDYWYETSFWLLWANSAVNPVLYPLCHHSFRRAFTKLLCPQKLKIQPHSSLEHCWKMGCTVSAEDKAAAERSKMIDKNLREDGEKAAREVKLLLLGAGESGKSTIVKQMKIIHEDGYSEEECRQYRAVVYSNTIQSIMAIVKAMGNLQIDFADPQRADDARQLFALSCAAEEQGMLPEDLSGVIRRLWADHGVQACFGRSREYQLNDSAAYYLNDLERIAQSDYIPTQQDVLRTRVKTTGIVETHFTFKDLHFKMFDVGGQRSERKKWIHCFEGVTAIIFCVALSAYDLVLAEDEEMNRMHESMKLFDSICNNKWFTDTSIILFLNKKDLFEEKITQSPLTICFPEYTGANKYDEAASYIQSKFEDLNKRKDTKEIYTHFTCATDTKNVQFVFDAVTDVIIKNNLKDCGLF

Row | SMILES | inhibition at 4 µM
1 | O=C(c1ccc(Cl)s1)N1CCc2cnc(N3CCN(C4CCC4)CC3)nc2CC1 [Compound 453, 7-[(5-chloro-2-thienyl)carbonyl]-2-(4-cyclobutylpiperazin-1-yl)-6,7,8,9-tetrahydro-5H-pyrimido[4,5-d]azepine] | ≥ 90%
2 | CCCCn1c(C(=O)N2CCc3cnc(N4CCN(C5CCC5)CC4)nc3CC2)cc2ccccc21 [Compound 454, 7-[(1-butyl-1H-indol-2-yl)carbonyl]-2-(4-cyclobutylpiperazin-1-yl)-6,7,8,9-tetrahydro-5H-pyrimido[4,5-d]azepine] | ≥ 90%
3 | O=C(c1cc2ccccc2s1)N1CCc2cnc(N3CCN(C4CCC4)CC3)nc2CC1 [Compound 455, 7-(1-benzothien-2-ylcarbonyl)-2-(4-cyclobutylpiperazin-1-yl)-6,7,8,9-tetrahydro-5H-pyrimido[4,5-d]azepine] | ≥ 90%
4 | COc1cscc1C(=O)N1CCc2cnc(N3CCN(C4CCC4)CC3)nc2CC1 [Compound 456, 2-(4-cyclobutylpiperazin-1-yl)-7-[(4-methoxy-3-thienyl)carbonyl]-6,7,8,9-tetrahydro-5H-pyrimido[4,5-d]azepine] | ≥ 90%
5 | O=C(c1sc2ccccc2c1Cl)N1CCc2cnc(N3CCN(C4CCC4)CC3)nc2CC1 [Compound 457, 7-[(3-chloro-1-benzothien-2-yl)carbonyl]-2-(4-cyclobutylpiperazin-1-yl)-6,7,8,9-tetrahydro-5H-pyrimido[4,5-d]azepine] | ≥ 90%
6 | CSc1sc(C(=O)N2CCc3cnc(N4CCN(C5CCC5)CC4)nc3CC2)c2c1C=CCC2 [Compound 458, 2-(4-cyclobutylpiperazin-1-yl)-7-{[3-(methylthio)-6,7-dihydro-2-benzothien-1-yl]carbonyl}-6,7,8,9-tetrahydro-5H-pyrimido[4,5-d]azepine] | ≥ 90%
7 | Cc1cc(C(=O)N2CCc3cnc(N4CCN(C5CCC5)CC4)nc3CC2)c(C)n1C [Compound 459, 2-(4-cyclobutylpiperazin-1-yl)-7-[(1,2,5-trimethyl-1H-pyrrol-3-yl)carbonyl]-6,7,8,9-tetrahydro-5H-pyrimido[4,5-d]azepine] | ≥ 90%
8 | Cn1nc(C(F)(F)F)cc1-c1ccc(C(=O)N2CCc3cnc(N4CCN(C5CCC5)CC4)nc3CC2)s1 [Compound 460, 2-(4-cyclobutylpiperazin-1-yl)-7-({5-[1-methyl-3-(trifluoromethyl)-1H-pyrazol-5-yl]-2-thienyl}carbonyl)-6,7,8,9-tetrahydro-5H-pyrimido[4,5-d]azepine] | ≥ 90%
9 | Cn1c(C(=O)N2CCc3cnc(N4CCN(C5CCC5)CC4)nc3CC2)cc2ccccc21 [Compound 461, 2-(4-cyclobutylpiperazin-1-yl)-7-[(1-methyl-1H-indol-2-yl)carbonyl]-6,7,8,9-tetrahydro-5H-pyrimido[4,5-d]azepine] | ≥ 90%
10 | CCn1c(C(=O)N2CCc3cnc(N4CCN(C5CCC5)CC4)nc3CC2)cc2ccccc21 [Compound 462, 2-(4-cyclobutylpiperazin-1-yl)-7-[(1-ethyl-1H-indol-2-yl)carbonyl]-6,7,8,9-tetrahydro-5H-pyrimido[4,5-d]azepine] | ≥ 90%
11 | CCCn1c(C(=O)N2CCc3cnc(N4CCN(C5CCC5)CC4)nc3CC2)cc2ccccc21 [Compound 463, 2-(4-cyclobutylpiperazin-1-yl)-7-[(1-propyl-1H-indol-2-yl)carbonyl]-6,7,8,9-tetrahydro-5H-pyrimido[4,5-d]azepine] | ≥ 90%
12 | O=C(c1ccsc1)N1CCc2cnc(N3CCN(C4CCC4)CC3)nc2CC1 [Compound 464, 2-(4-cyclobutylpiperazin-1-yl)-7-(3-thienylcarbonyl)-6,7,8,9-tetrahydro-5H-pyrimido[4,5-d]azepine] | ≥ 90%
13 | Cc1cc(C(=O)N2CCc3cnc(N4CCN(C5CCC5)CC4)nc3CC2)c(C)o1 [Compound 465, 2-(4-cyclobutylpiperazin-1-yl)-7-(2,5-dimethyl-3-furoyl)-6,7,8,9-tetrahydro-5H-pyrimido[4,5-d]azepine] | ≥ 90%
14 | Cc1oc(C(C)(C)C)cc1C(=O)N1CCc2cnc(N3CCN(C4CCC4)CC3)nc2CC1 [Compound 466, 7-(5-tert-butyl-2-methyl-3-furoyl)-2-(4-cyclobutylpiperazin-1-yl)-6,7,8,9-tetrahydro-5H-pyrimido[4,5-d]azepine] | ≥ 90%
15 | Cc1cc(C(=O)N2CCc3cnc(N4CCN(C5CCC5)CC4)nc3CC2)c(C(F)(F)F)o1 [Compound 467, 2-(4-cyclobutylpiperazin-1-yl)-7-[5-methyl-2-(trifluoromethyl)-3-furoyl]-6,7,8,9-tetrahydro-5H-pyrimido[4,5-d]azepine] | ≥ 90%
16 | Cc1cc(C(=O)N2CCc3cnc(N4CCN(C5CCC5)CC4)nc3CC2)oc1C [Compound 468, 2-(4-cyclobutylpiperazin-1-yl)-7-(4,5-dimethyl-2-furoyl)-6,7,8,9-tetrahydro-5H-pyrimido[4,5-d]azepine] | ≥ 90%

Row | SMILES | inhibition at 4 µM
17 | Cc1oc(-c2ccccc2)cc1C(=O)N1CCc2cnc(N3CCN(C4CCC4)CC3)nc2CC1 [Compound 469, 2-(4-cyclobutylpiperazin-1-yl)-7-(2-methyl-5-phenyl-3-furoyl)-6,7,8,9-tetrahydro-5H-pyrimido[4,5-d]azepine] | ≥ 90%
18 | O=C(c1cc(-c2ccc(Cl)cc2)oc1C(F)(F)F)N1CCc2cnc(N3CCN(C4CCC4)CC3)nc2CC1 [Compound 470, 7-[5-(4-chlorophenyl)-2-(trifluoromethyl)-3-furoyl]-2-(4-cyclobutylpiperazin-1-yl)-6,7,8,9-tetrahydro-5H-pyrimido[4,5-d]azepine] | ≥ 90%
19 | Cc1oc(-c2ccc(Cl)cc2)cc1C(=O)N1CCc2cnc(N3CCN(C4CCC4)CC3)nc2CC1 [Compound 471, 7-[5-(4-chlorophenyl)-2-methyl-3-furoyl]-2-(4-cyclobutylpiperazin-1-yl)-6,7,8,9-tetrahydro-5H-pyrimido[4,5-d]azepine] | ≥ 90%
20 | O=C(c1ccc(Oc2cc(Cl)cc(Cl)c2)o1)N1CCc2cnc(N3CCN(C4CCC4)CC3)nc2CC1 [Compound 472, 2-(4-cyclobutylpiperazin-1-yl)-7-[5-(3,5-dichlorophenoxy)-2-furoyl]-6,7,8,9-tetrahydro-5H-pyrimido[4,5-d]azepine] | ≥ 90%
21 | O=C(c1cc2ccccc2o1)N1CCc2cnc(N3CCN(C4CCC4)CC3)nc2CC1 [Compound 473, 7-(1-benzofuran-2-ylcarbonyl)-2-(4-cyclobutylpiperazin-1-yl)-6,7,8,9-tetrahydro-5H-pyrimido[4,5-d]azepine] | ≥ 90%
22 | O=C(c1ccc(OCC(F)(F)F)nc1)N1CCc2cnc(N3CCN(C4CCC4)CC3)nc2CC1 [Compound 474, 2-(4-cyclobutylpiperazin-1-yl)-7-{[6-(2,2,2-trifluoroethoxy)pyridin-3-yl]carbonyl}-6,7,8,9-tetrahydro-5H-pyrimido[4,5-d]azepine] | ≥ 90%
23 | O=C(c1cncc(C#Cc2ccccc2)c1)N1CCc2cnc(N3CCN(C4CCC4)CC3)nc2CC1 [Compound 475, 2-(4-cyclobutylpiperazin-1-yl)-7-{[5-(phenylethynyl)pyridin-3-yl]carbonyl}-6,7,8,9-tetrahydro-5H-pyrimido[4,5-d]azepine] | ≥ 90%
24 | O=C(c1cnccc1C(F)(F)F)N1CCc2cnc(N3CCN(C4CCC4)CC3)nc2CC1 [Compound 476, 2-(4-cyclobutylpiperazin-1-yl)-7-{[4-(trifluoromethyl)pyridin-3-yl]carbonyl}-6,7,8,9-tetrahydro-5H-pyrimido[4,5-d]azepine] | ≥ 90%
25 | O=C(c1cccnc1Cl)N1CCc2cnc(N3CCN(C4CCC4)CC3)nc2CC1 [Compound 477, 7-[(2-chloropyridin-3-yl)carbonyl]-2-(4-cyclobutylpiperazin-1-yl)-6,7,8,9-tetrahydro-5H-pyrimido[4,5-d]azepine] | ≥ 90%
26 | O=C(c1ccc(Cl)nc1)N1CCc2cnc(N3CCN(C4CCC4)CC3)nc2CC1 [Compound 478, 7-[(6-chloropyridin-3-yl)carbonyl]-2-(4-cyclobutylpiperazin-1-yl)-6,7,8,9-tetrahydro-5H-pyrimido[4,5-d]azepine] | ≥ 90%
27 | CSc1ncc(Cl)c(C(=O)N2CCc3cnc(N4CCN(C5CCC5)CC4)nc3CC2)n1 [Compound 479, 7-{[5-chloro-2-(methylthio)pyrimidin-4-yl]carbonyl}-2-(4-cyclobutylpiperazin-1-yl)-6,7,8,9-tetrahydro-5H-pyrimido[4,5-d]azepine] | ≥ 90%
28 | O=C(c1ccc(-n2cccc2)nc1)N1CCc2cnc(N3CCN(C4CCC4)CC3)nc2CC1 [Compound 480, 2-(4-cyclobutylpiperazin-1-yl)-7-{[6-(1H-pyrrol-1-yl)pyridin-3-yl]carbonyl}-6,7,8,9-tetrahydro-5H-pyrimido[4,5-d]azepine] | ≥ 90%
29 | O=C(c1cncc(Br)c1)N1CCc2cnc(N3CCN(C4CCC4)CC3)nc2CC1 [Compound 481, 7-[(5-bromopyridin-3-yl)carbonyl]-2-(4-cyclobutylpiperazin-1-yl)-6,7,8,9-tetrahydro-5H-pyrimido[4,5-d]azepine] | ≥ 90%
30 | O=C(c1cnc2ccccc2c1)N1CCc2cnc(N3CCN(C4CCC4)CC3)nc2CC1 [Compound 482, 2-(4-cyclobutylpiperazin-1-yl)-7-(quinolin-3-ylcarbonyl)-6,7,8,9-tetrahydro-5H-pyrimido[4,5-d]azepine] | ≥ 90%
31 | O=C(c1ccnc(Cl)c1)N1CCc2cnc(N3CCN(C4CCC4)CC3)nc2CC1 [Compound 483, 7-(2-chloroisonicotinoyl)-2-(4-cyclobutylpiperazin-1-yl)-6,7,8,9-tetrahydro-5H-pyrimido[4,5-d]azepine] | ≥ 90%
32 | Cc1cc(C(=O)N2CCc3cnc(N4CCN(C5CCC5)CC4)nc3CC2)cc(Cl)n1 [Compound 484, 7-(2-chloro-6-methylisonicotinoyl)-2-(4-cyclobutylpiperazin-1-yl)-6,7,8,9-tetrahydro-5H-pyrimido[4,5-d]azepine] | ≥ 90%

Source: US20080051387A1, “TETRAHYDROPYRIDO[3,4-D]PYRIMIDINES AND RELATED ANALOGUES” (priority 2006, published 2008)
